Laboratory results taken from paper PMC8032668, “Evaluation of carboxyfluorescein-labeled 7-methylguanine nucleotides as probes for studying cap-binding proteins by fluorescence anisotropy” (Scientific Reports, 2021).

Assays:
DcpS [1] = system: DcpS; parameters: method as in PMID 27031609; conditions: DcpS inhibition, FR assay; cited from earlier work
DcpS [2] = molecular target: T1, DcpS (Homo sapiens, UniProt Q96C86); test: FA screening of in-house library, 2i:DcpS system; format: binding; conditions: 1 nM 2i, 25 nM DcpS, 1.5 µM inhibitor
T1 construct: His tag; made in house; host or cells: E. coli BL21(DE3) RIL
T1 sequence (Q96C86 1-337): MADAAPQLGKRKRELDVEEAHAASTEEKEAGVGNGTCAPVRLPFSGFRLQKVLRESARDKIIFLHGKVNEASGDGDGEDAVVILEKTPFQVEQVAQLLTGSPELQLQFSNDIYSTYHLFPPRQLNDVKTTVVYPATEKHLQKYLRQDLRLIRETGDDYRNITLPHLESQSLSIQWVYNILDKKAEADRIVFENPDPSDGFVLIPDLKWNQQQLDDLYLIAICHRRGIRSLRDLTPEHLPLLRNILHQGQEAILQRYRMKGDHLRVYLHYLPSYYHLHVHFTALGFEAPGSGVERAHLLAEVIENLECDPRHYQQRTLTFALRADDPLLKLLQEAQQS
Method: The Z’ factor was determined under conditions optimized for the competition assay. The Z’ value exceeded 0.8 for incubation times up to 1 h, making the assay suitable for screening experiments (Table 5). A screening experiment was then performed using the same compound library as that used for eIF4E screening. The results highlighted the impact of the triphosphate bridge modification on the affinity for the protein. […] The FA method also enabled the identification of unstable compounds, e.g., hydrozylable ligands for which determination of affinity is problematic (as observed by FA signal changes during the experiment; Fig. 7).
To evaluate the quality of the assay, the Z’ factor was determined for several protein-probe combinations. The assay was performed on 96-well microplates, where half of the samples were negative controls and the other half were positive controls.
For the screening experiments a small in-house library containing 21 ligands was used. Experiments were conducted in the same manner as Z’ factor determination, with exception that the ligand concentration was modified (eIF4E screening conditions: 1 nM 1e, 100 nM eIF4E, 750 nM ligand, DcpS screening conditions: 1 nM 2i, 25 nM DcpS, 1.5 µM ligand). For eIF4E screening experiment, the 1e:eIF4E system was used, for DcpS screening 2i:DcpS system was used.

DcpS [3] = molecular target: T1, DcpS; test: FA competition assay for DcpS; format: binding
Method: Expression of recombinant His-tagged human DcpS was performed in BL21(DE3) RIL strain and induced overnight at 18 °C using 0.5 mM IPTG as described previously. Cells were harvested, resuspended in buffer (50 mM Tris pH 7.6, 500 mM NaCl, 20 mM imidazole) with lysozyme (0.1 mg/ml) and protease inhibitors (1 mM PMSF, 1 µM pepstatin A, 0.3 µM aprotinin) and then lysed using sonication. Lysate was clarified by centrifugation at 35 000 × g for 40 min at 4 °C. […] The enzyme hDcpS was purified to homogeneity on HiLoad 16/600 Superdex 200 pg (GE Healthcare) gel filtration column using 50 mM Tris·HCl pH 7.6, 200 mM NaCl, 2 mM DTT buffer. Protein was aliquoted and stored in the presence of 10% glycerol at -80 °C.
(§1) Experiments were carried out at 25 °C in 96-well non-binding microplates with sample volume of 200 µl per well. Two different buffers were used depending on protein used in the assay:
DcpS assay buffer—50 mM Tris–HCl (pH 7.6), 200 mM KCl, 0.5 mM EDTA, 1 mM DTT.
(§2) For competitive binding assay, a mixture containing the probe and the protein was incubated with the tested ligand.
(§3) In competitive measurements, a constant concentration of the protein and fluorescent probe and increasing concentration of the test ligand were used. At least 12 point dilutions of the tested compound were used. The experiments were carried out in 96-well plates. Each sample contained a mixture consisting of the probe, tested ligand and buffer (same as for the direct binding assay). The samples were incubated for 10 min at 25 °C with simultaneous shaking, then the protein was added to each well, incubated for additional 3 min, followed by the measurement of fluorescence anisotropy. FA signals were recorded for 20 min with 2 min intervals.

4G peptide = 4G peptide (UniProt Q04637); test: fluorescence anisotropy; conditions: cited from earlier work
eIF4E [4] = molecular target: T2, eIF4E (Mus musculus, UniProt P63073); test: FA competition (probe-displacement) assay for eIF4E; format: binding, Murine; conditions: for EC50: HEPES pH 7.2
T2 construct: Murine eIF4E (residues 28–217) was expressed in E. coli; made in house; host or cells: E. coli
T2 sequence (P63073 28-217): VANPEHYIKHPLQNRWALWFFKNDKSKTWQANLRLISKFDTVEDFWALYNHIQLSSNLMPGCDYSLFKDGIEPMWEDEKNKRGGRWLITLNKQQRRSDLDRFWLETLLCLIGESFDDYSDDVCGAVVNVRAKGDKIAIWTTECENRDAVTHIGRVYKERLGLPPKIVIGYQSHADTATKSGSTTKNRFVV
Method: Inclusion bodies containing eIF4E were solubilized in 50 mM HEPES/KOH (pH 7.2) buffer containing 10% glycerol, 6 M guanidine hydrochloride and 2 mM DTT. Protein was then refolded during a two-step dialysis against buffer with decreasing concentration of guanidine hydrochloride in the presence of 100 mM KCl. Subsequently eIF4E was loaded on ion exchange HiTrap SP HP column (GE Healthcare), eluted with linear gradient of 0.1–1 M KCl and finally desalted and polished during a gel filtration purification step on HiLoad 16/600 Superdex 75 pg (GE Healthcare) using 50 mM HEPES pH 7.2, 100 mM KCl, 0.5 mM EDTA, 2 mM DTT buffer. eIF4E was aliquoted and stored in the presence of 10% glycerol at −80 °C. Before each experiment the protein was centrifuged on Ultrafree-MC Centrifugal PVDF filter with […] pore size (Millipore), at 4 °C and 3000×g for 2 min to remove any possible aggregates.
as §1
eIF4E assay buffer—50 mM HEPES (pH 7.2), 100 mM KCl, 0.5 mM EDTA, 1 mM DTT.
as §2, §3

eIF4E [5] = system: eIF4E; parameters: method as in PMID 22316555; conditions: cited from earlier work
[6] = 1f:DcpS system, 1f and 100 nM DcpS
[7] = 2g:DcpS system, 2 nM 2g and 25 nM DcpS
[8] = 2i:DcpS system, 1 nM 2i and 25 nM DcpS
[9] = 2h:DcpS system, 2 nM 2h and 25 nM DcpS
[10] = Probe 1a: 10 nM probe 1a and 100 nM eIF4E
[11] = Probe 1b: 1 nM probe 1b and 15 nM eIF4E
[12] = Probe 1e: footnote c, 1 nM probe 1c and 100 nM eIF4E

Sequence of eIF4E (from UniProt P06730) (P06730 2-217): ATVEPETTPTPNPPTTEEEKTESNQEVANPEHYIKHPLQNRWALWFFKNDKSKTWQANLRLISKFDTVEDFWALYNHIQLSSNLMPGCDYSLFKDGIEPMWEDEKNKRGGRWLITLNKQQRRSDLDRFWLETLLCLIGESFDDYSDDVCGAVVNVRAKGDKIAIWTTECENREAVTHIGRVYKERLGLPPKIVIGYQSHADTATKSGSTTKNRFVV

| Compound | inhibitory potency in DcpS screening (DcpS [2]) | EC50 (DcpS [3]; [6]) [nM] | Hill slope (DcpS [3]; [6]) | EC50 (DcpS [3]; [7]) [nM] | Hill slope (DcpS [3]; [7]) | EC50 (DcpS [3]; [8]) [nM] | Hill slope (DcpS [3]; [8]) | EC50 (DcpS [3]; [9]) [nM] | Hill slope (DcpS [3]; [9]) | IC50 (DcpS [1]) [nM] | other results |
| --- | --- | --- | --- | --- | --- | --- | --- | --- | --- | --- | --- |
| eIF4E (from UniProt P06730) | – | – | – | – | – | – | – | – | – | – | Kd (4G peptide): 25000 nM |
| Cn1c[n+]([C@@H]2O[C@H](COP(=O)(O)O)[C@@H](O)[C@H]2O)c2nc(N)[nH]c(=O)c21 [m^7GMP] | – | 104 ± 11 | 1.19 ± 0.15 | 112 ± 11 | 1.04 ± 0.02 | 255 ± 14 | 1.00 ± 0.02 | 357 ± 44 | 0.93 ± 0.07 | 97000 ± 21000 | – |
| Cn1c[n+]([C@@H]2O[C@H](COP(=O)(O)OP(=O)([O-])O)[C@@H](O)[C@H]2O)c2nc(N)[nH]c(=O)c21 [m^7GDP] | – | 36.5 ± 3.6 | 1.98 ± 0.18 | 16.4 ± 0.2 | 1.55 ± 0.09 | 36.2 ± 4.7 | 1.42 ± 0.06 | 31.2 ± 10.7 | 1.06 ± 0.37 | 5200 ± 1200 | Hill slope (eIF4E [4]; [10]): 1.36 ± 0.03; EC50 (eIF4E [4]; [10]): 204 ± 5.5 nM; Hill slope (eIF4E [4]; [11]): 1.16 ± 0.04; EC50 (eIF4E [4]; [11]): 212 ± 30 nM; Hill slope (eIF4E [4]; [12]): 1.08 ± 0.07; EC50 (eIF4E [4]; [12]): 216 ± 11 nM |
| m^7GSppSpG D1 | the most potent inhibitors | – | – | – | – | – | – | – | – | – | – |

More lines, main results first:

| inhibitory potency in DcpS screening (DcpS [2]) | EC50 (DcpS [3]; [6]) [nM] | Hill slope (DcpS [3]; [6]) | EC50 (DcpS [3]; [7]) [nM] | Hill slope (DcpS [3]; [7]) | EC50 (DcpS [3]; [8]) [nM] | Hill slope (DcpS [3]; [8]) | EC50 (DcpS [3]; [9]) [nM] | Hill slope (DcpS [3]; [9]) | Compound | IC50 (DcpS [1]) [nM] | other results |
| --- | --- | --- | --- | --- | --- | --- | --- | --- | --- | --- | --- |
| strong DcpS inhibitors | 27.8 ± 2.7 | 2.26 ± 0.16 | 11.6 ± 0.4 | 1.95 ± 0.07 | 17.9 ± 1.3 | 1.66 ± 0.10 | 18.1 ± 5 | 1.23 ± 0.44 | C[n+]1cn([C@@H]2O[C@H](COP(=O)([O-])NP(=O)(O)OP(=O)(O)OC[C@H]3O[C@@H](n4cnc5c(=O)[nH]c(N)nc54)[C@H](O)[C@@H]3O)[C@@H](O)[C@H]2O)c2nc(N)[nH]c(=O)c21.N.N [m^7GpNHppG] | 3200 ± 900 | – |
| strong DcpS inhibitors | – | – | – | – | – | – | – | – | C[n+]1cn([C@@H]2O[C@H](COP(=O)([O-])NP(=O)([O-])OP(=O)([O-])OP(=O)([O-])OC[C@H]3O[C@@H](n4cnc5c(=O)[nH]c(N)nc54)[C@H](O)[C@@H]3O)[C@@H](O)[C@H]2O)c2nc(N)[nH]c(=O)c21.[Na+].[Na+].[Na+] [m^7GpNHpppG] | – | association constant KAS (eIF4E [5]): 112.3 ± 1.8 µM⁻¹ |
